Experimental data published in patent US20020061840A1, “Tripeptide compounds useful as selective inhibitors of aminopeptidase A and corresponding pharmaceutical compositions” (priority 2000, published 2002).

The molecules below were run against T1, Aminopeptidase N (Sus scrofa, UniProt P15145) (assay: In vitro inhibiting power on aminopeptidase N (Ala-Na substrate)). Settings: APN purified from pig's kidney, 200 μM Ala-Na, 37° C., Tris HCl pH 7.4.
T1 construct: Aminopeptidase N purified from pig's kidney; purchased Böehringer Mannheim (Meylan, France); host or cells: pig's kidney
T1 sequence (P15145 1-963): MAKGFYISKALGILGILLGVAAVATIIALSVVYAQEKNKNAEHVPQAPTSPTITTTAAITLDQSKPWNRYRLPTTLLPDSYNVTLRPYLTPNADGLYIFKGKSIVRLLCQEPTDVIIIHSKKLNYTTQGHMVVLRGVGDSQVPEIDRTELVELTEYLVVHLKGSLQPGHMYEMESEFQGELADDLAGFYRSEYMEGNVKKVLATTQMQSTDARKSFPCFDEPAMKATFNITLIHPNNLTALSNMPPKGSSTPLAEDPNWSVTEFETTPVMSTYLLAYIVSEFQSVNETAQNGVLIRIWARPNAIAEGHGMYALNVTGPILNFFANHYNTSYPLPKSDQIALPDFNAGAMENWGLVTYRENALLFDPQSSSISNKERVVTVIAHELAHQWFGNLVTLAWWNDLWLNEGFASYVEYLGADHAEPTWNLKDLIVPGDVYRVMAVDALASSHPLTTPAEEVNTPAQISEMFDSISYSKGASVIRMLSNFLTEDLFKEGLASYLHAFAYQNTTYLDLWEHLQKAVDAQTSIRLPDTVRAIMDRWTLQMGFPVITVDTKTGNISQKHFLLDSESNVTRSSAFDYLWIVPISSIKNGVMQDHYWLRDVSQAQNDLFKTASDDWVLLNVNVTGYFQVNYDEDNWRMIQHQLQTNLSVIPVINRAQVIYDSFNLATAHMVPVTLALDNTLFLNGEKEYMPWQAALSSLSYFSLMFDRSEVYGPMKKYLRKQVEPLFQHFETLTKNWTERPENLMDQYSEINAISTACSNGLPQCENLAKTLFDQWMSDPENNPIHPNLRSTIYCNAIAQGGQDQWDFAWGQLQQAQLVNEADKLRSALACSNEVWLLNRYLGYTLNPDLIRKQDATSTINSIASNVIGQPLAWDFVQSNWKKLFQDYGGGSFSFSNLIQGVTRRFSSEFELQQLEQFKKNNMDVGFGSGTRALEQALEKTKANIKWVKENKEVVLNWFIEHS
Assay type: biochemical
Description: b)) In vitro study of the inhibiting power of the synthesised compounds on aminopeptidase N.
1°) Source of the Enzyme.
Aminopeptidase N purified from pig's kidney is marketed by Böehringer Mannheim (Meylan, France).
The APN is incubated for 10 min at 37° C. in the absence or in the presence of increasing concentrations of inhibitors in a total volume of 100 μl in Tris HCl buffer (50 mM, pH =7.4. 200 μM of Ala-Na are added and the whole thing is incubated for 30 min at 37° C. The reaction is stopped by the addition of 10 μl of CH3COO—Na 1M (pH=4.2). The absorption is measured at 400 nm and compared with that of a standard range of 2-naphthyiamine.

SMILES | Ki [µM]
CCC(C)C(NC(=O)C(S)C(N)CCP(=O)(O)O)C(=O)NC(CCC(=O)O)C(=O)O (single isomer, unassigned) [Example 4B] | > 5
CC[C@H](C)[C@H](NC(=O)[C@@H](S)[C@H](N)CCC(=O)O)C(=O)N1CC[C@@H](C(=O)O)[C@H]1C(=O)O [Example 3A, [[(2S ,3R)-3-amino-5-carboxy-2-mercapto]pentanoyl]-LIIe-L.(3R)(3-COOH)Pro-OH] | > 5
CCC(C)C(NC(=O)C(S)C(N)CCP(=O)(O)O)C(=O)NC(CCC(=O)O)C(=O)O (single isomer, unassigned) [Example 4A] | > 5
CC[C@H](C)[C@H](NC(=O)[C@H](S)[C@H](N)CCC(=O)O)C(=O)N1CC[C@@H](C(=O)O)[C@H]1C(=O)O [Example 3B, [[(2R,3R), 3-amino-5-carboxy-2-mercapto]-pentanoyl]-L.IIe-L.(3R)(3-COOH)Pro-OH] | > 5

Other lines, results leading:

Ki [µM] | SMILES
> 50 | CCC(C)C(NC(=O)C(S)C(N)CCS(=O)(=O)O)C(=O)NC(CCC(=O)O)C(N)=O (single isomer, unassigned) [Example 8A]
> 50 | CCC(C)C(NC(=O)C(S)C(N)CCS(=O)(=O)O)C(=O)NC(CCC(=O)O)C(N)=O (single isomer, unassigned) [Example 8B]
